Holding throughout (assay type): cell-based
Common to all, as to details: HEK293

Test [1] addresses T1, Short transient receptor potential channel 5 (Homo sapiens) (UniProt Q9UL62).
T1 sequence (whole entry): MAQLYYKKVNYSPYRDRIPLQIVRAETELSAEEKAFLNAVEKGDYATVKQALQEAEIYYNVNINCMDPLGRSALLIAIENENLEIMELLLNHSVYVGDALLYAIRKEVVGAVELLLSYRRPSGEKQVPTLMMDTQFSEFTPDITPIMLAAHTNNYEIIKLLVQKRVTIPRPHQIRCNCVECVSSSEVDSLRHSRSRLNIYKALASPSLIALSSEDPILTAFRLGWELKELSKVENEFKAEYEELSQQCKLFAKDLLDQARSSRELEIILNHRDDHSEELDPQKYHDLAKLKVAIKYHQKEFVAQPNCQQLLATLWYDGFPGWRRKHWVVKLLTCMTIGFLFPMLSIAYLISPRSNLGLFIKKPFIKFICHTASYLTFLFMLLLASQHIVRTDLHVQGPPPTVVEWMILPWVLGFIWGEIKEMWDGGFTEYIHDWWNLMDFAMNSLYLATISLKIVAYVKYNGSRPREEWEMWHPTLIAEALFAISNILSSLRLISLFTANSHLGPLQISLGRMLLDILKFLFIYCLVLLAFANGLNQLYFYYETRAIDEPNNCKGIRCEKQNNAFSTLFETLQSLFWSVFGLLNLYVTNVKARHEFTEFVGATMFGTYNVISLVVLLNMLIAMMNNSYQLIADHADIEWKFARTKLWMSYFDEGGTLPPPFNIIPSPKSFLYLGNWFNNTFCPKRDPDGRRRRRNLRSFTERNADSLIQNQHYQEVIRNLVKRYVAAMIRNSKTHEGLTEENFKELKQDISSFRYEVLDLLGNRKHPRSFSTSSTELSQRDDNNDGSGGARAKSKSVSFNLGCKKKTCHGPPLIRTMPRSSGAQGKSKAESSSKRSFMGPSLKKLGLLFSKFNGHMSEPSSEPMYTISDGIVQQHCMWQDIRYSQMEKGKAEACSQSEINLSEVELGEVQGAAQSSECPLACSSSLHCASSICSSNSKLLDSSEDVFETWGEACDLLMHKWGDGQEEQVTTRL
In words: Induction of S-nitrosylation of TRPC5 in HEK cells assessed as increase in Ca2+ level from extracellular space at 30 uM.

Test [2] addresses Transient receptor potential cation channel subfamily M member 2 (Homo sapiens) (UniProt O94759). In words: Induction of TRPM2 S-nitrosylation in HEK cells assessed as increase in Ca2+ level from extracellular space at 30 uM.
In test [3] the test system is T2, Short transient receptor potential channel 5 (Homo sapiens), Q9UL62 [C553S].
T2 sequence (whole entry): T1 sequence (whole entry) with C553S
In words: Decrease in TRPC5 C553S mutant S-nitrosylation in HEK cells assessed as inhibition of incorporation of DTNB-2Bio at 30 uM relative to control.

The target of test [4] is T1, Short transient receptor potential channel 5 (Homo sapiens). In words: Induction of S-nitrosylation of TRPC5 in HEK cells assessed as inhibition of incorporation of DTNB-2Bio at 300 uM.
For test [5], the target named is T3, Transient receptor potential cation channel subfamily V member 3 (Homo sapiens) (UniProt Q8NET8).
T3 sequence (whole entry): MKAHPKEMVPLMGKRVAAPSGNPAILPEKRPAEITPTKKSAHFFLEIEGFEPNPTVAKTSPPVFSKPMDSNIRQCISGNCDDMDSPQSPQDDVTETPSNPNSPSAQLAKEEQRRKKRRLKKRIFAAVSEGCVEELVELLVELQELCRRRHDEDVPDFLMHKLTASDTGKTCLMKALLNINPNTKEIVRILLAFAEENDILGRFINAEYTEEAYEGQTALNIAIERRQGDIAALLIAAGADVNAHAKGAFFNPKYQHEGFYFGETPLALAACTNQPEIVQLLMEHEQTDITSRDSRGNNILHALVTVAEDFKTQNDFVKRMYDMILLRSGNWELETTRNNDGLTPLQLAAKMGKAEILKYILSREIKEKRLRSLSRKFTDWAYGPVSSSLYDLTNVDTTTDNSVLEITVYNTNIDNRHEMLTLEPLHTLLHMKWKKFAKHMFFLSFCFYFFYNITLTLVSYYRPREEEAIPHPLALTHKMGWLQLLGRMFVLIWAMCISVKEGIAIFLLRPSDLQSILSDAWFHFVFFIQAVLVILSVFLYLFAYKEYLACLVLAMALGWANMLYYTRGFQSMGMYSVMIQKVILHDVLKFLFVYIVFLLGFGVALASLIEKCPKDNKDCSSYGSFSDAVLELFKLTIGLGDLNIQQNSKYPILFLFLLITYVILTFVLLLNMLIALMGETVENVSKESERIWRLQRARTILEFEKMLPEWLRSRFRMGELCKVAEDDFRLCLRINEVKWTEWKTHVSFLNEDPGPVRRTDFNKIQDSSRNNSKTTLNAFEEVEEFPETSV
Description: Activation of TRPV3 in HEK cells assessed as increase in Ca2+ level from extracellular space at 300 uM.

The results in this text go back to ChEMBL document CHEMBL1250444, “Nitric oxide activates TRP channels by cysteine S-nitrosylation” (Nat Chem Biol, 2006).

Molecules are shown by their SMILES. Substitutions are numbered along the chain they refer to. The source made the active and inactive calls. The calls are words filed in the database; no cut-off is given here.

Sequence of Transient receptor potential cation channel subfamily M member 2 (Homo sapiens) (O94759 whole entry): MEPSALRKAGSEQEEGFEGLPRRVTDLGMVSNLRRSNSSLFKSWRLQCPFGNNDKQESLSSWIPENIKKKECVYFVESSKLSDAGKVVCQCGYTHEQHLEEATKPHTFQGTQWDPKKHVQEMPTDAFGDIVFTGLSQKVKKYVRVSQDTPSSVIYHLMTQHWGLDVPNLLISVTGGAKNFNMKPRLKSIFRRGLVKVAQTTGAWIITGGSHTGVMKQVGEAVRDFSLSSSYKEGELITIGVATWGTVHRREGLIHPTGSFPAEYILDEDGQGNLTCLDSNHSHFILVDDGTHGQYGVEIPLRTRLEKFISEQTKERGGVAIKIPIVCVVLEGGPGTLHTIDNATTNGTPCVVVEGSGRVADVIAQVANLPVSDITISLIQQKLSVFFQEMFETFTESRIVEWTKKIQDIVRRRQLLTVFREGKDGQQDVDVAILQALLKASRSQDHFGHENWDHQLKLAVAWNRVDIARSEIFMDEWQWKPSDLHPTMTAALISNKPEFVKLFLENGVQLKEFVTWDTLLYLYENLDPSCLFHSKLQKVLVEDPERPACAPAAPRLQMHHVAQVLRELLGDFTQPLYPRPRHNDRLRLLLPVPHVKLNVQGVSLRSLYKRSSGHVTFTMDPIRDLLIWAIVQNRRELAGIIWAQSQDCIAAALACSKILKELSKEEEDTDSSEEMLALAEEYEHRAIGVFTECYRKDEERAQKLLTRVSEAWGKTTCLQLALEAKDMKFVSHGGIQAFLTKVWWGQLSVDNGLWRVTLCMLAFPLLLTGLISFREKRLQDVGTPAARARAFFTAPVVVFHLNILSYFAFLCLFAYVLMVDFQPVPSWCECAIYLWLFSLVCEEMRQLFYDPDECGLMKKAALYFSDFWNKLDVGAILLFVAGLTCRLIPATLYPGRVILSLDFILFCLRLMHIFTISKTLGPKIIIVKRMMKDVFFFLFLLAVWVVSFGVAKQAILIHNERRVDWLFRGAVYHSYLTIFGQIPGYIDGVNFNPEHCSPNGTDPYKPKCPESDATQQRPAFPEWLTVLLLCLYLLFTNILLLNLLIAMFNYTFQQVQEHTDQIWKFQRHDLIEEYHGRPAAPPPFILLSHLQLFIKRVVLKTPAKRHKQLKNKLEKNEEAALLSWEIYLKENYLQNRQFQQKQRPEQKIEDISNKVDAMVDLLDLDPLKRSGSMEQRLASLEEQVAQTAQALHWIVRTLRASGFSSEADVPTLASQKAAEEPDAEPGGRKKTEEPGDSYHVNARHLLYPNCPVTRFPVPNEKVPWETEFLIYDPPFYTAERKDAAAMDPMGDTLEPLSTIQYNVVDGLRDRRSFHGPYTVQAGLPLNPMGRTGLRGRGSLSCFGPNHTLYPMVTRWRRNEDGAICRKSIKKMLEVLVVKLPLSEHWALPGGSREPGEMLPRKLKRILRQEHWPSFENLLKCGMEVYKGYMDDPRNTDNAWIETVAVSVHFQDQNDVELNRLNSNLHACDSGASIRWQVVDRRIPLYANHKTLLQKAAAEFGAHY

Take `O=[N+]([O-])c1ccc(SSc2ccc([N+](=O)[O-])cn2)nc1`: the result in test [1] and in test [3] was Active. In test [2], the result was inactive.
Consider `CC(=O)N[C@@H](C(=O)O)C(C)(C)SN=O` (racemic), for which the result in test [4] and in test [5] was Active.
